“Also recorded” adds a separate entry of the source.
What was measured:
Apc5 = biological target: T1, Apc5 (Saccharomyces cerevisiae, UniProt Q08683); experiment: Yeast 2-hybrid (Y2H) binding of peptide prey to Apc5 bait; settings: galactose-inducible Trx-scaffold peptide prey
T1 construct: expressed in transfected cells; host or cells: yeast Y2H cells
T1 sequence (Q08683 1-685): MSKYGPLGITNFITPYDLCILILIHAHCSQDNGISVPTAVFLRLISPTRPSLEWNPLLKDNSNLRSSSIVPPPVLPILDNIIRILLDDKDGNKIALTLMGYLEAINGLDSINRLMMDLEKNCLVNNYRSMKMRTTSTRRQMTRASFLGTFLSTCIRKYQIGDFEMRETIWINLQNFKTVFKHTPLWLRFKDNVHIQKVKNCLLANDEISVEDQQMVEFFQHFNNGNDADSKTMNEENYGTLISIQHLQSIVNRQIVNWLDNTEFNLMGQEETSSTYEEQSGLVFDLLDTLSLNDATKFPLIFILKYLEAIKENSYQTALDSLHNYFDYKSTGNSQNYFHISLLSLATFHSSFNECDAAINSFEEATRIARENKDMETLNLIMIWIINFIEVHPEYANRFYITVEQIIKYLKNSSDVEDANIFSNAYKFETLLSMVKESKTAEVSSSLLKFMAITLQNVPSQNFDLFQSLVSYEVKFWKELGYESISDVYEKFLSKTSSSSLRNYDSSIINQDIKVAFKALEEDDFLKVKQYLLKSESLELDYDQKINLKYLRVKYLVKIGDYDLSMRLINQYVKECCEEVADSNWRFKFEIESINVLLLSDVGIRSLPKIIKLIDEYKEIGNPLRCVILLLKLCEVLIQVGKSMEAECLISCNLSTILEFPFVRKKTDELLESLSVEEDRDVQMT
Method: (§1) The reverse genetic screen utilized a yeast 2-hybrid (Y2H) protocol that selected for peptides that bound to the APC subunits Apc5 or Apc10 (see FIG. 5 for APC structure), to assess whether peptide-binding might modify APC function. Peptides that bound APC subunits were then assayed for those that suppressed APC mutant defects.
(§2) Random small peptides were cloned into the TrxA scaffold (library provided by R. Geyer, U of S) and expressed from a galactose-inducible Y2H prey vector in cells harboring either APC5 or APC10 Y2H bait vectors (APC5/APC10 bait constructs complement APC mutant defects).
(§3) Over 100 peptides that bound either Apc5 or Apc10 were recovered from millions screened. Six peptides that reproducibly interacted with the Apc10 bait construct in Y2H assays were examined further. Vectors expressing these 6 peptides were transformed into APC mutant cells and assessed for ts growth.

yeast proteins = experiment: Yeast 2-hybrid assay for proteins interacting with the peptides; type: binding
[1] = system: APC mutant (apc5 temperature sensitive mutant and/or apc10Δ mutant); experiment: Viability/growth of APC mutant yeast cells; type: cell-based
Method: (§4) A. apc5^CA cells expressing small peptides were assayed for replicative life span (RLS). B. Cells expressing HTZ1 were grown under stress conditions. HTZ1 expression, even at low levels, suppresses apc5^CA and apc10Δ defects. The cells shown were transformed with either an empty vector or GAL inducible HTZ1. On 2% glucose, the construct is weakly expressed, and this is enough to increase growth of APC mutants at 30° C.
Examples of yeast cells with defective anaphase promoting complex (APC) function include apc5 and apc10 mutants. An example of an apc5 mutant is the apc5 temperature sensitive mutant described herein. An example of an apc10 mutant is the apc10 deletion mutant described herein.
as §1, §3

Apc10 = biological target: T2, Apc10 (Saccharomyces cerevisiae, UniProt P53068); experiment: Yeast 2-hybrid (Y2H) binding of peptide prey to Apc10 bait; settings: galactose-inducible Trx-scaffold peptide prey
T2 construct: expressed in transfected cells; host or cells: yeast Y2H cells
T2 sequence (P53068 1-250): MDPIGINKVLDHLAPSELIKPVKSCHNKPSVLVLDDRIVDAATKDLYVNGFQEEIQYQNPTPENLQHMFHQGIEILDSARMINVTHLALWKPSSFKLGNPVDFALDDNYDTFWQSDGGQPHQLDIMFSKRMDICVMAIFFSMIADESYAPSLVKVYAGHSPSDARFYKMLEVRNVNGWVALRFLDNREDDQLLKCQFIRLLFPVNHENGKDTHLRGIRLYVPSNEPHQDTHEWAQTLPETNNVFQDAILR
Method: as §1
A library of random small peptides were cloned into a Thioredoxin (Trx) scaffold (see FIG. 6 for Trx-aptamer structure) and expressed from a galactose-inducible Y2H prey vector in cells expressing the Apc10 bait vector (the modified Apc10 is still part of the complete APC complex). Six peptides that reproducibly interacted with the Apc10 bait construct in Y2H assays were identified (FIG. 1A) and were examined further.
as §2, §3

[2] = system: wild type (WT) yeast cells; experiment: Spot dilution growth and stress resistance of wild type yeast cells expressing peptides; type: cell-based
Method: (§5) A. apc5^CA (temperature sensitive allele) cells were transformed with C43-4, C2-4B or an empty vector. Cells grown overnight in 2% Glu were struck onto 2% Glucose plates and used for the yeast replicative lifespan (RLS) assay. B. Wild type (WT) cells transformed with C43-4, C2-4B or an empty vector were grown to stationary phase in 2% Glu media, then after 2 days spot diluted onto 2% Glu or 2% Gal to induce expression of the aptamers.
The cells were exposed to 5 sec of UV from a UV box prior to incubation. The plus signs define growth compared to the empty vector control.
(§6) The six peptide expressing vectors were transformed into apc10Δ cells and assessed for temperature sensitive growth. Two of the peptides, C43-4 and C2-4B, suppressed the apc10Δ growth phenotype at 30 and 34° C. (FIG. 1B-D). […] However, C43-4 and C2-4B increased replicative and chronological lifespan in both apc5^CA and WT cells, respectively (FIG. 2A). […] H2O2 induces oxidative stress whereas galactose induces a carbon stress.
These cells were spot diluted on Trp-plates and grown at the temperatures shown and/or exposed to ultraviolet (UV) irradiation (FIG. 11). At low level expression on glucose, some of the mutations caused stress dependent phenotypes.
Methods • 1. Cells were cultured overnight in Trp-2% glucose media • 2. The growth of the cells was determined by measuring the optical density (OD) of the cells at 600 nm (OD600) • 3. Cells were diluted to OD600 of 1 with fresh culture media • 4. 100 ul of each culture was pipetted into a well of a 96 well plate • 5. 10 ul of the each starting culture was pipetted into 90 ul of water in 4 additional wells to make a 10-fold serial spot dilution • 6. 5 ul from each serial dilution was spotted onto plates containing standard growth media with either 2% glucose or 2% galactose using a multi-pipettor • 7. The plates were exposed to UV • 8. The plates were then placed at room temperature, 30, 34 or 37° C. for 3-7 days • 9. The plates were scanned and saved as tiff files

apc10Δ cells = experiment: Spot dilution growth of apc10Δ cells expressing peptides; type: cell-based, yeast
Description: A. Y2H cells expressing the APC subunit bait and the galactose inducible Apc10 peptide prey grown on glucose or galactose. Cells co-expressing the Apc5 or Apc10-bait and Apc10 aptamer-prey vectors were spotted onto the appropriate media, in the presence or absence of galactose (the aptamers are Gal inducible), to confirm 2-hybrid interactions. Growth on trp-his-media ensures both plasmids are maintained. A 2-hybrid interaction will drive expression of the ADE2 gene, allowing growth on ade-media. B. Aptamers that bind Apc10 can suppress APC mutant phenotypes. Spot dilutions of apc10Δ cells expressing an empty vector control or the one of 6 Apc10 aptamers tested. Log phase cells were 10-fold serially diluted and spotted onto plates containing either 2% glucose or 2% galactose. The plates were then incubated at 30° C. (permissive temperature) and 34° C. (restrictive stress). C. Peptides identified as binding to the yeast Apc10 APC subunit using the yeast 2-hybrid screen increase growth of cells on stress conditions. A series of APC binding peptides were transformed into wild type yeast cells, spot diluted, and grown at 30° C. on media supplemented with the normal carbon source (2% glucose). Alternatively, cells were grown on media supplemented with 2% galactose to induce a carbon stress. D. Peptides were expressed in apc5^ts temperature sensitive cells and grown on glucose or galactose media at 30° C.
The cells were exposed to 5 sec of UV from a UV box prior to incubation.
The six peptide expressing vectors were transformed into apc10Δ cells and assessed for temperature sensitive growth. Two of the peptides, C43-4 and C2-4B, suppressed the apc10Δ growth phenotype at 30 and 34° C. (FIG. 1B-D). […]
Over 100 peptides that bound either Apc5 or Apc10 were recovered from millions screened. […] Vectors expressing these 6 peptides were transformed into APC mutant cells and assessed for ts growth.
Methods • 1. […] The growth of the cells was determined by measuring the optical density (OD) of the cells at 600 nm (OD600) • 3. […]

WT cells = experiment: Chronological lifespan of WT yeast cells; type: cell-based
Method: as §5, §6

apc5^CA cells = experiment: Yeast replicative lifespan (RLS) assay; type: cell-based
Method: as §5, §4

[3] = system: apc5^CA temperature sensitive mutant; experiment: Forward genetic screen: rescue of apc5^CA temperature sensitive growth; type: cell-based, yeast
Description: Using a forward genetic screen to test whether temperature sensitive (ts) APC mutants expressing random small peptides could grow at restrictive temperatures, millions of small peptides were rapidly screened for those that could restore mutant APC phenotypes. Peptides that rescued the apc5^CA ts (temperature sensitive) defect were recovered including peptides Y65 and Y36.
In the forward screens, with galactose-inducible TrxA-based peptide libraries, in cells harboring the apc5^CA ts allele, over 200 peptides (from millions screened) suppressed the ts phenotype. Several recovered plasmids were sequenced.

APC = experiment: Yeast 2-hybrid binding to the APC
Description: As used herein, the expression “binds to the APC” refers to a peptide that binds to at least one subunit of the APC, for example Apc5 or Apc10. Binding can be measured for example, by any method known in the art, including, but not limited to a yeast 2-hybrid assay.
as §1, §2

Sequence | Binds Apc5 in a yeast 2 hybrid assay (Apc5) | Proteins identified as interacting in a yeast 2 hybrid assay (yeast proteins) | Viability of an APC mutant [1] | Binds Apc10 in a yeast 2 hybrid assay (Apc10) | other results
CECLETETFHPITRHLIVPV [9-5] | Binds Apc5 | Interacts with Die2, Tim44, Yrm1 | increases the viability | – | Binds Apc5 in a yeast 2 hybrid assay (Apc5; listed as SEQ ID NO. 3): binds Apc5
GALKEVCICIVESVGGEVFSGP [compound 4] | Binds Apc5 | Identified as interacting with Hxt2,; also recorded: Mad2, Ubc7, Rpp2, Kap122, Sfa1,; also recorded: Oac1 and Vps13 in a yeast 2- | increases the viability | – | Binds Apc5 in a yeast 2 hybrid assay (Apc5; listed as SEQ ID NO. 6): binds Apc5
GRMLMTYLMYFMVLWVPRPWGPPL [1-8] | – | – | increases the viability | Binds Apc10 | Binds Apc10 in a yeast 2 hybrid assay (Apc10; listed as SEQ ID NO: 8): binds Apc10
NGSSHNDARVRRLTLISRLC (Artificial Sequene) [C43-4-3, Version of C43-4 where the leucine residue at position 8 is replaced with alanine] | – | – | – | binds Apc10 | Resistance to UV stress compared to C43-4 cells ([2]; FIG. 11, UV treated, for example at room temperature): increased resistance to UV stress; Growth compared to C43-4 cells ([2]; FIG. 11, for example at room temperature): increased growth; Stress resistance at low level expression ([2]; WT cells on glucose, temperature and/or UV stress, versus empty vector): increased stress resistance further; Toxicity in apc10Δ cells (apc10Δ cells; glucose or galactose media, 5 sec UV (FIG. 13)): remained toxic
PSYNTIKYHETHGGRHPRRQPKRPI [3-1] | – | Identified as interacting with Sld5,; also recorded: Hms2, Gnt1 and Vnx1 in a yeast | increases the viability | Binds Apc10 | Binds Apc10 in a yeast 2 hybrid assay (Apc10; listed as SEQ ID NO. 5): binds Apc10
RMPQWWQWMWV [C2-4B, Peptide aptamer with homology to yeast protein Sum1] | Binds Apc5 | – | increases the viability | – | Binds Apc5 in a yeast 2 hybrid assay (Apc5; listed as 02-4B): binds Apc5; Chronological lifespan (WT cells): increased; Replicative lifespan (apc5^CA cells): increased; Log phase growth of wild type (WT) cells ([2]; 30° C.): Neither C43-4 nor C2-4B influenced; Stress resistance when overexpressed in WT yeast cells ([2]; overexpressed, H2O2 oxidative stress, galactose carbon stress): increased stress resistance; apc10Δ growth phenotype (apc10Δ cells; 30 and 34° C.): suppressed
RRCLSIRTENLAWEGKFLRV [50-1] | – | Identified as interacting with Pxa1,; also recorded: Rrp12, and Hfm1 in a yeast 2- | increases the viability | Binds Apc10 | Binds Apc10 in a yeast 2 hybrid assay (Apc10; listed as SEQ ID NO: 9): binds Apc10
SKWTWRMCMSWTVDRFAPVPWP [24-1] | Binds Apc5 | – | increases the viability | – | Binds Apc5 in a yeast 2 hybrid assay (Apc5; listed as SEQ ID NO: 7): binds Apc5
SWLNGSGGVVLWLFSNFCCG [Y36] | – | – | – | – | apc5^CA temperature sensitive (ts) growth / viability of an apc5 temperature sensitive mutant [3]: increases the viability; also recorded: rescued; also recorded: Rescues apc5^CA temperature; Binding to the APC in a yeast 2HY assay (APC): not bind the APC in a yeast 2HY
